The values that follow are results of earlier work, collected in patent US20110151497A1, “METABOLOMIC PROFILING OF PROSTATE CANCER” (THE REGENTS OF THE UNIVERSITY OF MICHIGAN, priority 2009, published 2011).

For this data set the following is noted: humans, isotope labeling.

Structures are written as SMILES.

On to `CCCCCCCCCCCCCCCCCC(=O)O` [stearic acid], for which the “fraction of dietary stearic acid oxidatively desaturated to oleic acid relative to fraction of palmitic acid converted to palmitoleic acid” value is 2.4 times.
